These compounds were tested against GLP-1 Receptor (Homo sapiens, UniProt P43220) (assay: GLP-1R agonist cAMP stimulation assay (HEK293/GLP1R/CRE-Luc cells, HTRF cAMP)). Settings: HEK293/CRE-Luc cells stably expressing GLP-1 Receptor; 30 min, 37° C.
Type: cell-based
Method: Activation of GLP-1 receptor is known to stimulate cyclic AMP (cAMP) production in cells which indicates primary coupling to the Gαs subunit of the G protein heterotrimeric complex.
To optimize functional activity directed toward Gαs coupling, a HEK293/CRE-Luc cell line developed by HDB stably expressing the GLP-1 Receptor was used. […] 1×10^5 cells/mL HEK293/GLP1R/CRE-LUC(HD Biosciences) cell suspensions prepared with assay buffer[DPBS containing 0.5 mM IBMX (Sigma, Cat #I5879) and 0.1% BSA (GENVIEW, Cat #FA016-100g)], 10 uL cell suspensions were added to each well of previous generated assay plate which already contains 50 nl compound at 200×concentration using ThermoFisher Multidrop Combi (1000 cells/well). Seal the plate and incubate at 37° C. with 5% CO2 for 30 min.
After incubation the cAMP assay signal was generated using cAMP dynamic 2 Kit (Cisbio). 5 μL cAMP-d2 working solution was added to each well, followed with 5 μL Anti-cAMP antibody-cryptate working solution added to each well using ThermoFisher Multidrop Combi. Incubate at room temperature for 1 hour protected from light.

Sequence of GLP-1 Receptor (P43220 24-463): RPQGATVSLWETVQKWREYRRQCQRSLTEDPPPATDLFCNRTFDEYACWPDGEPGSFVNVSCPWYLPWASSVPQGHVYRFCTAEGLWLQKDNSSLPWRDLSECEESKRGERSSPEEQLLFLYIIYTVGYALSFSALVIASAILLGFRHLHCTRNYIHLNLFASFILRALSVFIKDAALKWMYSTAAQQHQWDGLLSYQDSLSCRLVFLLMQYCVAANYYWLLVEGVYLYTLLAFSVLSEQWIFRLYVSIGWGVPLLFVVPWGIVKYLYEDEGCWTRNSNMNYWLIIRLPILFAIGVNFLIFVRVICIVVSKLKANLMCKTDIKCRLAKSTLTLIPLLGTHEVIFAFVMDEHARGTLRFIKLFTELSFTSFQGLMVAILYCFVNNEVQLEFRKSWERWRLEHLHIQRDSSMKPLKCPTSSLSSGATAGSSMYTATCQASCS

How did the “GLP1R cAMP Stimulation DR: pEC50” value turn out when O=C(O)c1ccc2nc(CN3CCC(Oc4cccc(Cc5cccc(Cl)c5)n4)CC3)n(C[C@@H]3CCO3)c2n1 [Compound 125a, (S)-2-((4-((6-(3-chlorobenzyl)pyridin-2-yl)oxy)piperidin-1-yl)methyl)-3-(oxetan-2-ylmethyl)-3H-imidazo[4,5-b]pyridine-5-carboxylic acid] was run?
Its value is 8.9.

How did the “GLP1R cAMP Stimulation DR: pEC50” value turn out when O=C(O)c1ccc2nc(CN3CCC(Oc4ccnc(Cc5ccc(Cl)cc5F)n4)CC3)n(C[C@@H]3CCO3)c2c1 [Compound 160a, 2-{[4-({2-[(4-chloro-2-fluorophenyl)methyl]pyrimidin-4-yl}oxy)piperidin-1-yl]methyl}-1-{[(2S)-oxetan-2-yl]methyl}-1H-1,3-benzodiazole-6-carboxylic acid] was run?
The value was 9.9.

How did the “GLP1R cAMP Stimulation DR: pEC50” value turn out when O=C(O)c1ccc2nc(Cc3ccc(Oc4ccnc(Cc5ccc(Cl)cc5)n4)cc3)n(C[C@@H]3CCO3)c2n1 [Compound 186a, 2-{[4-({2-[(4-chlorophenyl)methyl]pyrimidin-4-yl}oxy)phenyl]methyl}-3-{[(2S)-oxetan-2-yl]methyl}-3H-imidazo[4,5-b]pyridine-5-carboxylic acid] was run?
The value was 9.2.

N#Cc1ccc(Cc2cccc(OC3CCN(Cc4nc5ccc(C(=O)O)cc5n4C[C@@H]4CCO4)CC3)n2)c(F)c1 [Compound 135a, 2-{[4-({6-[(4-cyano-2-fluorophenyl)methyl]pyridin-2-yl}oxy)piperidin-1-yl]methyl}-1-{[(2S)-oxetan-2-yl]methyl}-1H-1,3-benzodiazole-6-carboxylic acid] was tested. Which “GLP1R cAMP Stimulation DR: pEC50” value did it give?
The value was 8.7.

With O=C(O)c1ccc2nc(Cc3ccc(Oc4nc(Cc5ccc(Cl)cc5)ncc4F)cc3F)n(C[C@@H]3CCO3)c2c1 [Compound 191a, 2-{[4-({2-[(4-chlorophenyl)methyl]-5-fluoropyrimidin-4-yl}oxy)-2-fluorophenyl]methyl}-1-{[(2S)-oxetan-2-yl]methyl}-1H-1,3-benzodiazole-6-carboxylic acid] as the compound, how does the “GLP1R cAMP Stimulation DR: pEC50” value read?
The value was 9.5.

With N#Cc1ccc(Cc2nccc(O[C@H]3CC[C@H](Cc4nc5ccc(C(=O)O)nc5n4C[C@@H]4CCO4)CC3)n2)cc1 [Compound 182a, 3-{[(2S)-oxetan-2-yl]methyl}-2-{[trans-4-({2-[(4-cyanophenyl)methyl]pyrimidin-4-yl}oxy)cyclohexyl]methyl}-3H-imidazo[4,5-b]pyridine-5-carboxylic acid] as the compound, how does the “GLP1R cAMP Stimulation DR: pEC50” value read?
The value was 10.2.

With O=C(O)c1ccc2nc(CN3CCC(c4cccc5cn(Cc6ccc(Cl)cc6F)nc45)CC3)n(C[C@@H]3CCO3)c2n1 [Compound 142a, (S)-2-((4-(2-(4-chloro-2-fluorobenzyl)-2H-indazol-7-yl)piperidin-1-yl)methyl)-3-(oxetan-2-ylmethyl)-3H-imidazo[4,5-b]pyridine-5-carboxylic acid] as the compound, how does the “GLP1R cAMP Stimulation DR: pEC50” value read?
Its value is 8.8.

For Cn1c(C[C@H]2CC[C@H](Oc3ccnc(Cc4ccc(Cl)cc4)n3)CC2)nc2ccc(C(=O)O)nc21 [Compound 180a, 3-methyl-2-{[trans-4-({2-[(4-chlorophenyl)methyl]pyrimidin-4-yl}oxy)cyclohexyl]methyl}-3H-imidazo[4,5-b]pyridine-5-carboxylic acid], which “GLP1R cAMP Stimulation DR: pEC50” value is on record?
The value was 8.6.

With O=C(O)c1ccc2nc(CN3CCC(Oc4cccc(CN5Cc6ccccc6C5=O)n4)CC3)n(C[C@@H]3CCO3)c2n1 [Compound 148a, 3-{[(2S)-oxetan-2-yl]methyl}-2-{[4-({6-[(1-oxo-2,3-dihydro-1H-isoindol-2-yl)methyl]pyridin-2-yl}oxy)piperidin-1-yl]methyl}-3H-imidazo[4,5-b]pyridine-5-carboxylic acid] as the compound, how does the “GLP1R cAMP Stimulation DR: pEC50” value read?
The value was 8.4.

Which “GLP1R cAMP Stimulation DR: pEC50” value does the source give for O=C(O)c1ccc2nc(C[C@H]3CC[C@H](Oc4ccnc(Cc5ccc(Cl)cc5)n4)CC3)n(C[C@@H]3CCO3)c2c1 [Compound 176a, 1-{[(2S)-oxetan-2-yl]methyl}-2-{[trans-4-({2-[(4-chlorophenyl)methyl]pyrimidin-4-yl}oxy)cyclohexyl]methyl}-1H-1,3-benzodiazole-6-carboxylic acid] here?
The value was 9.4.

For O=C(O)c1ccc2nc(C[C@H]3CC[C@H](Oc4cccc(Cc5ccc(Cl)cc5)n4)CC3)n(C[C@@H]3CCO3)c2n1 [Compound 181a, 3-{[(2S)-oxetan-2-yl]methyl}-2-{[trans-4-({6-[(4-chlorophenyl)methyl]pyridin-2-yl}oxy)cyclohexyl]methyl}-3H-imidazo[4,5-b]pyridine-5-carboxylic acid], which “GLP1R cAMP Stimulation DR: pEC50” value is on record?
Its value is 10.1.

With O=C(O)c1ccc2nc(C[C@H]3CC[C@H](Oc4ccnc(Cc5ccc(Cl)cc5)n4)CC3)n(C[C@@H]3CCO3)c2n1 [Compound 177a, 3-{[(2S)-oxetan-2-yl]methyl}-2-{[trans-4-({2-[(4-chlorophenyl)methyl]pyrimidin-4-yl}oxy)cyclohexyl]methyl}-3H-imidazo[4,5-b]pyridine-5-carboxylic acid] as the compound, how does the “GLP1R cAMP Stimulation DR: pEC50” value read?
The value was 10.4.

For Cc1cn(Cc2ccc(Cl)cc2F)nc1OC1CCN(Cc2nc3ccc(C(=O)O)nc3n2C[C@@H]2CCO2)CC1 [Compound 133a, 2-{[4-({1-[(4-chloro-2-fluorophenyl)methyl]-4-methyl-1H-pyrazol-3-yl}oxy)piperidin-1-yl]methyl}-3-{[(2S)-oxetan-2-yl]methyl}-3H-imidazo[4,5-b]pyridine-5-carboxylic acid], which “GLP1R cAMP Stimulation DR: pEC50” value is on record?
Its value is 8.6.

Which “GLP1R cAMP Stimulation DR: pEC50” value does the source give for O=C(O)c1ccc2nc(CN3CCC(Oc4ccnc(Cc5ccc(Cl)cc5)n4)CC3)n(Cc3cn[nH]c3)c2n1 [Compound 193, 3-((1H-pyrazol-4-yl)methyl)-2-((4-((2-(4-chlorobenzyl)pyrimidin-4-yl)oxy)piperidin-1-yl)methyl)-3H-imidazo[4,5-b]pyridine-5-carboxylic acid] here?
Its value is 9.7.

How did the “GLP1R cAMP Stimulation DR: pEC50” value turn out when NC(=O)c1ccc2nc(CN3CCC(Oc4ccnc(Cc5ccc(Cl)cc5)n4)CC3)n(C[C@@H]3CCO3)c2n1 [Compound 200a, (S)-2-((4-((2-(4-chlorobenzyl)pyrimidin-4-yl)oxy)piperidin-1-yl)methyl)-3-(oxetan-2-ylmethyl)-3H-imidazo[4,5-b]pyridine-5-carboxamide] was run?
Its value is 7.1.

Which “GLP1R cAMP Stimulation DR: pEC50” value does the source give for O=C(O)c1ccc2nc(CN3CCC(Oc4ccnc(Cc5ccc(F)cc5F)n4)CC3)n(C[C@@H]3CCO3)c2n1 [Compound 165a, 2-{[4-({2-[(2,4-difluorophenyl)methyl]pyrimidin-4-yl}oxy)piperidin-1-yl]methyl}-3-{[(2S)-oxetan-2-yl]methyl}-3H-imidazo[4,5-b]pyridine-5-carboxylic acid] here?
The value was 9.4.

How did the “GLP1R cAMP Stimulation DR: pEC50” value turn out when COCCn1c(C[C@H]2CC[C@H](Oc3ccnc(Cc4ccc(Cl)cc4)n3)CC2)nc2ccc(C(=O)O)nc21 [Compound 179a, 3-(2-methoxyethyl)-2-{[trans-4-({2-[(4-chlorophenyl)methyl]pyrimidin-4-yl}oxy)cyclohexyl]methyl}-3H-imidazo[4,5-b]pyridine-5-carboxylic acid] was run?
The value was 8.6.

How did the “GLP1R cAMP Stimulation DR: pEC50” value turn out when O=C(O)c1ccc2nc(CN3CCC(Oc4ccnc(Cc5ccc(Cl)c(Cl)c5)n4)CC3)n(C[C@@H]3CCO3)c2n1 [Compound 167a, 2-{[4-({2-[(3,4-dichlorophenyl)methyl]pyrimidin-4-yl}oxy)piperidin-1-yl]methyl}-3-{[(2S)-oxetan-2-yl]methyl}-3H-imidazo[4,5-b]pyridine-5-carboxylic acid] was run?
Its value is 9.9.

Which “GLP1R cAMP Stimulation DR: pEC50” value does the source give for O=C(O)c1ccc2nc(CN3CCC(Oc4cccc(Cc5ccc(C6CC6)cc5)n4)CC3)n(C[C@@H]3CCO3)c2n1 [Compound 146a, 2-{[4-({6-[(4-cyclopropylphenyl)methyl]pyridin-2-yl}oxy)piperidin-1-yl]methyl}-3-{[(2S)-oxetan-2-yl]methyl}-3H-imidazo[4,5-b]pyridine-5-carboxylic acid] here?
Its value is 9.2.

With O=C(O)c1ccc2nc(CN3CCC(n4ncc5ccc(Cc6ccc(Cl)cc6F)nc54)CC3)n(C[C@@H]3CCO3)c2n1 [Compound 185a, 2-[(4-{6-[(4-chloro-2-fluorophenyl)methyl]-1H-pyrazolo[3,4-b]pyridin-1-yl}piperidin-1-yl)methyl]-3-{[(2S)-oxetan-2-yl]methyl}-3H-imidazo[4,5-b]pyridine-5-carboxylic acid] as the compound, how does the “GLP1R cAMP Stimulation DR: pEC50” value read?
Its value is 9.3.

With O=C(O)c1ccc2nc(C[C@H]3CC[C@@H](Oc4cccc(Cc5ccc(Cl)cc5F)n4)CC3)n(C[C@@H]3CCO3)c2n1 [Compound 174a, 3-{[(2S)-oxetan-2-yl]methyl}-2-{[cis-4-({6-[(4-chloro-2-fluorophenyl)methyl]pyridin-2-yl}oxy)cyclohexyl]methyl}-3H-imidazo[4,5-b]pyridine-5-carboxylic acid] as the compound, how does the “GLP1R cAMP Stimulation DR: pEC50” value read?
Its value is 7.5.

Which “GLP1R cAMP Stimulation DR: pEC50” value does the source give for O=C(O)c1ccc2nc(CN3CCC(Oc4ccnc(Cc5ccc(Cl)cc5F)n4)CC3)n(C[C@@H]3CCO3)c2n1 [Compound 113a, 2-{[4-({2-[(4-chloro-2-fluorophenyl)methyl]pyrimidin-4-yl}oxy)piperidin-1-yl]methyl}-3-{[(2S)-oxetan-2-yl]methyl}-3H-imidazo[4,5-b]pyridine-5-carboxylic acid] here?
Its value is 10.4.

How did the “GLP1R cAMP Stimulation DR: pEC50” value turn out when O=C(O)c1ccc2nc(CN3CCC(Oc4ccnc(Cc5ccc(Cl)cc5F)n4)C(F)(F)C3)n(C[C@@H]3CCO3)c2n1 (stereo partly drawn) [Compound 168a, 2-{[4-({2-[(4-chloro-2-fluorophenyl)methyl]pyrimidin-4-yl}oxy)-3,3-difluoropiperidin-1-yl]methyl}-3-{[(2S)-oxetan-2-yl]methyl}-3H-imidazo[4,5-b]pyridine-5-carboxylic acid] was run?
Its value is 8.9.

Same assay, conditions: HEK293/CRE-Luc cells stably expressing GLP-1 Receptor; 30 min, 37° C.; read-out: GLP1R cAMP Stimulation DR: EC50

For O=C(O)c1ccc2nc(CN3CCC(Oc4ccnc(Cc5ccc(F)cc5F)n4)CC3)n(C[C@@H]3CCO3)c2n1 [Compound 165a, 2-{[4-({2-[(2,4-difluorophenyl)methyl]pyrimidin-4-yl}oxy)piperidin-1-yl]methyl}-3-{[(2S)-oxetan-2-yl]methyl}-3H-imidazo[4,5-b]pyridine-5-carboxylic acid], which EC50 is on record?
The EC50 was 0.4 nM.

— patent US11926626B2, “Heterocyclic GLP-1 agonists” (Gasherbrum Bio, Inc., priority 2020, dated 2024)
